What was measured:
SF268 (Low Grade Glioma) [1] = test: Bliss excess, mean over the matrix (fraction); higher = more synergy
Summary of the method: (§1)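 Cell lines in DMEM/F12 or RPMI with 10% FBS were plated in 1536-well plates, held 24 hours at 37°C, 5% CO2, then given two-drug dose matrices for 72 hours (DMSO typically 0.2%). Viability was read by CellTiter-Glo 2.0 luminescence and scaled as inhibition from 0 (vehicle wells) to 1 (blank wells). Combination Emax is the second-highest inhibition in the matrix; Bliss excess is observed combination effect minus expected EA + EB − EA·EB, EA and EB being single-agent effects.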

[2] = system: RERF-GC-1B (Gastric Carcinoma); test: as above
Summary of the method: as §1

[3] = system: HCT-15 (Colorectal Carcinoma); test: as above
Summary of the method: as §1

[4] = system: OAW-42 (Ovarian Carcinoma); test: as above
Summary of the method: as §1

GB-1 (Glioblastoma) [5] = test: as above
Summary of the method: as §1

[6] = system: RERF-LC-Sq1 (Squamous Cell Lung Carcinoma); test: as above
Summary of the method: as §1

[7] = system: HEC-1 (Endometrial Carcinoma); test: as above
Summary of the method: as §1

[8] = system: LXF-289 (Lung Adenocarcinoma); test: as above
Summary of the method: as §1

LN-229 (Glioblastoma) [9] = test: as above
Summary of the method: as §1

[10] = system: KE-37 (T-Lymphoblastic Leukemia); test: as above
Summary of the method: as §1

WM278 (Melanoma) [11] = test: as above
Summary of the method: as §1

[12] = system: CAL-120 (Breast Carcinoma); test: as above
Summary of the method: as §1

[13] = system: 23132-87 (Gastric Carcinoma); test: as above
Summary of the method: as §1

[14] = system: SU-DHL-10 (B-Cell Non-Hodgkin's Lymphoma); test: as above
Summary of the method: as §1

A2058 (Melanoma) [15] = test: as above
Summary of the method: as §1

[16] = system: NCI-H446 (Small Cell Lung Carcinoma); test: as above
Summary of the method: as §1

WM793B (Melanoma) [17] = test: as above
Summary of the method: as §1

[18] = system: GP5d (Colorectal Carcinoma); test: as above
Summary of the method: as §1

[19] = system: LB996-RCC (Kidney Carcinoma); test: as above
Summary of the method: as §1

[20] = system: NCI-H23 (Lung Adenocarcinoma); test: as above
Summary of the method: as §1

[21] = system: FADU (Head and Neck Carcinoma); test: as above
Summary of the method: as §1

SF268 (Low Grade Glioma) [22] = test: combination Emax (second highest fraction inhibited in the dose matrix, 72 h); higher = more inhibition; extreme values may be limits of the assay
Summary of the method: as §1

[23] = system: RERF-GC-1B (Gastric Carcinoma); test: as above
Summary of the method: as §1

[24] = system: HCT-15 (Colorectal Carcinoma); test: as above
Summary of the method: as §1

[25] = system: OAW-42 (Ovarian Carcinoma); test: as above
Summary of the method: as §1

GB-1 (Glioblastoma) [26] = test: as above
Summary of the method: as §1

[27] = system: RERF-LC-Sq1 (Squamous Cell Lung Carcinoma); test: as above
Summary of the method: as §1

[28] = system: HEC-1 (Endometrial Carcinoma); test: as above
Summary of the method: as §1

[29] = system: LXF-289 (Lung Adenocarcinoma); test: as above
Summary of the method: as §1

LN-229 (Glioblastoma) [30] = test: as above
Summary of the method: as §1

[31] = system: KE-37 (T-Lymphoblastic Leukemia); test: as above
Summary of the method: as §1

WM278 (Melanoma) [32] = test: as above
Summary of the method: as §1

[33] = system: CAL-120 (Breast Carcinoma); test: as above
Summary of the method: as §1

[34] = system: 23132-87 (Gastric Carcinoma); test: as above
Summary of the method: as §1

[35] = system: SU-DHL-10 (B-Cell Non-Hodgkin's Lymphoma); test: as above
Summary of the method: as §1

A2058 (Melanoma) [36] = test: as above
Summary of the method: as §1

[37] = system: NCI-H446 (Small Cell Lung Carcinoma); test: as above
Summary of the method: as §1

WM793B (Melanoma) [38] = test: as above
Summary of the method: as §1

[39] = system: GP5d (Colorectal Carcinoma); test: as above
Summary of the method: as §1

[40] = system: LB996-RCC (Kidney Carcinoma); test: as above
Summary of the method: as §1

[41] = system: NCI-H23 (Lung Adenocarcinoma); test: as above
Summary of the method: as §1

[42] = system: FADU (Head and Neck Carcinoma); test: as above
Summary of the method: as §1
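Wherever Bliss excess, mean over the matrix is given: after 72 h of two-drug dosing.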

CC(=O)c1c(C)c2cnc(Nc3ccc(N4CCNCC4)cn3)nc2n(C2CCCC2)c1=O [Palbociclib] + CN(CC[C@H](CSC1=CC=CC=C1)NC2=C(C=C(C=C2)S(=O)(=O)NC(=O)C3=CC=C(C=C3)N4CCC(CC4)[C@H](C5=CC=CC=C5C6=CC=C(C=C6)Cl)O)S(=O)(=O)C(F)(F)F)CCO [AZD4320] (first compound max 10 µM, 7x7, partner max 1 µM)
Bliss excess (SF268 (Low Grade Glioma) [1]): -0.0438
Bliss excess [2]: -0.0147
Bliss excess [3]: -0.0286
Bliss excess [4]: -0.0177
Bliss excess (GB-1 (Glioblastoma) [5]): -0.111
Bliss excess [6]: -0.0176
Bliss excess [7]: -0.125
Bliss excess [8]: -0.0091
Bliss excess (LN-229 (Glioblastoma) [9]): -0.059
Bliss excess [10]: -0.0137
Bliss excess (WM278 (Melanoma) [11]): -0.106
Bliss excess [12]: -0.0614
Bliss excess [13]: -0.093
Bliss excess [14]: 0.0319
Bliss excess (A2058 (Melanoma) [15]): -0.0261
Bliss excess [16]: -0.0065
Bliss excess (WM793B (Melanoma) [17]): -0.0525
Bliss excess [18]: 0.0238
Bliss excess [19]: -0.0652
Bliss excess [20]: -0.0367
Bliss excess [21]: -0.137
combination Emax (SF268 (Low Grade Glioma) [22]): 0.35
combination Emax [23]: 0.35
combination Emax [24]: 0.726
combination Emax [25]: 0.562
combination Emax (GB-1 (Glioblastoma) [26]): 0.209
combination Emax [27]: 0.575
combination Emax [28]: 0.298
combination Emax [29]: 0.449
combination Emax (LN-229 (Glioblastoma) [30]): 0.126
combination Emax [31]: 1
combination Emax (WM278 (Melanoma) [32]): 0.711
combination Emax [33]: 0.815
combination Emax [34]: 0.578
combination Emax [35]: 0.995
combination Emax (A2058 (Melanoma) [36]): 0.323
combination Emax [37]: 0.887
combination Emax (WM793B (Melanoma) [38]): 0.474
combination Emax [39]: 0.592
combination Emax [40]: 0.729
combination Emax [41]: 0.312
combination Emax [42]: 0.356

From the supplement of paper PMC11061612
